# Publication PMC9917132, “Tenebrio molitor as a Simple and Cheap Preclinical Pharmacokinetic and Toxicity Model” (International Journal of Molecular Sciences, 2023)
# Like-named read-outs stand apart in the source and are kept apart here.
# Assays:
# [1] = system: adult exemplars of T. molitor Coleoptera; assay: Toxicity of vehicles in adult T. molitor Coleoptera (survival, vitals monitored daily for seven days); type: in vivo, Tenebrio molitor; settings: for Survival %: groups of six TMC, seven days; for tolerability: 1 µL per TMC (lower dose)
# Procedure: Considering the limited volume of hemolymph, we considered injecting 1 or 2 µL of vehicles per TMC. The most common vehicles used for i.v. and i.p. studies were administered to experimental groups of six TMC and vitals were monitored daily for seven days. Results are reported in Table 1, expressed as survival %.
# TMC were randomly selected for toxicity assessment. TMC older than 3 days were discarded. Compounds were solubilized in the opportune vehicle and injected on the hemocoel using a Hamilton syringe, (7001 KH, volume 1 µL, needle size 25 s, cone tip), by administering 1 µL of compound on the TMC dorsal side, between the pronotum and elytron.
# [2] = system: Rats; settings: cited from earlier work; for LD50: reported
# [3] = Acute toxicity (LD50) in adult T. molitor Coleoptera (TMC) after injection in the hemocoel; type: in vivo, Tenebrio molitor; settings: Tenebrio molitor, in vivo, other: injection in the hemocoel; 1 µL in 100% DMSO injected in hemocoel; mortality recorded daily for 7 days; highest dose 2000 mg/kg
# Procedure: (§1) The literature was carefully studied to identify the starting dose of a panel of drugs; however, when no data were available, the protocol described in Figure 1 was adopted, using 1 TMC and starting from the dose of 200 mg/kg.
# (§2) The protocol depicted in Figure 2 has been adopted to determine LD50, starting from the opportune dose determined as described above. A panel of 20 drugs available on the market, including antivirals, antibiotics and the representative drugs for several pharmaceutical classes, was analyzed (Table 2).
# (§3) Figure 2 Flowchart for LD50 determination. Starting from the opportune initial dose, LD50 was determined by changing the dose based on results and increasing the number of […] for final determinations. GHS cat.: Globally Harmonized System category. The numbers on the circles represent the number of deaths in exemplars.
# (§4) TMC were randomly selected for toxicity assessment. TMC older than 3 days were discarded.
# (§5) Acute toxicity was determined following the Organization for Economic Cooperation and Development (OECD) guidelines for acute toxicity of chemicals. All the available information on the test substance was considered to select the toxic dose of test compounds. Data were collected considering LD50 already reported for humans, rats and mice or, when possible, insects (e.g., Galleria mellonella). The initial dose, expressed in mg/kg, was calculated as the lowest LD50 reported in the literature. When no data were found in the literature, the starting dose of 200 mg/kg was used and the range-finding study was conducted with 1 TMC, by adapting OECD guidelines (Figure 1). To perform LD50 calculation study, 5 TMC were injected with the selected dose, and mortality was recorded daily for 7 days. Each experiment included 1 control group treated with DMSO. […] If 1 or less TMC died, the experiment was performed with a higher dose. If 2 or 3 TMC died, the experiment was repeated by re-testing the initial dose with 10 TMC. […] The experiment continued until a toxic dose was determined.
# [4] = system: Mice; settings: cited from earlier work
# [5] = system: dogs; settings: i.v., reported; cited from earlier work
# [6] = system: guinea pigs; settings: i.v., reported; cited from earlier work
# [7] = NADPH-generating system, 37 °C, pH 7.4
# Procedure: To characterize their phase I metabolism, the drugs were incubated with human or rat microsomes and their main metabolites were determined by HPLC-MS analysis and compared to data already reported (Table 3).
# After centrifuging the reaction mixtures, the parent drug and its metabolites were characterized by LC-UV-MS [38].
# HPLC analysis was performed using an Agilent 1100 LC/MSD VL system (G1946C) (Agilent Technologies, Palo Alto, CA) comprising a vacuum solvent degassing unit, a binary high-pressure gradient pump and a 1100 series UV detector; a 1100 MSD model VL benchtop mass spectrometer was used to perform the chromatographic analysis. Chromatographic separation was obtained using a Phenomenex Kinetex C18-100 Å column (100–4.6 mm, 5 μm particle size). […] The injection volume was 20 μL and the flow rate was 0.4 mL min^−1. The orthogonal spray API-ES was installed on the Agilent 1100 series mass spectra-detection single-quadrupole instrument (Agilent Technologies, Palo Alto, CA, USA). N2 was used as a nebulizing and drying gas. The vaporization temperature, capillary voltage, fragmentor voltage, drying gas flow and pressure were set at […], respectively. […] The LC-ESI-MS measurements were performed by operating in either the positive or negative ion mode. Spectra were acquired over the scan range m/z 100–1500 using a step size of 0.1 u. […]
# [8] = cited from earlier work; for T ½ / Vd: PK literature data
# [9] = parameters: method as in doi:10.1201/9780429460418; settings: literature data; cited from earlier work
# [10] = parameters: method as in doi:10.1201/9780429460418; settings: literature data; cited from earlier work; remark: listed apart in the source
# [11] = Preliminary in vivo PK in TMC (hemolymph analysis by HPLC); settings: single dose equal to half the LD50 (62.5 or 150 mg/kg); hemolymph at 0, 1, 2, 4, 8, 24 hpt
# [12] = system: Tenebrio molitor; assay: Acute toxicity (LD50) in adult T. molitor Coleoptera (TMC) after injection in the hemocoel; type: in vivo; settings: dose of 2000 mg/kg
# Procedure: as §1, §2, §3, §4, §5
# [13] = parameters: method as in PMID 33649113; settings: oral administration; cited from earlier work
# [14] = in some people, depending on age and state of health
smiles,measurement,setting,value
CCO [EtOH],Survival %,[1]; 1 µL injected per TMC,100%
same,tolerability,[1],well tolerated
same,Survival %,[1]; 2 µL injected per TMC,50%
same,LD50,"[2]; rats, route not given",1400 mg/kg
O=C(N[C@H](CO)[C@H](O)c1ccc([N+](=O)[O-])cc1)C(Cl)Cl [Chloramphenicol],LD50 at 7 days,[3],300 mg/kg
same,LD50 Mice iv,[4],171 mg/kg
O=C(O)c1ccccc1O [Salicylic acid],LD50 Mice ip,[4],300 mg/kg
CC(C(=O)O)c1cccc(C(=O)c2ccccc2)c1 (stereo not shown) [Ketoprofen],LD50 Mice ip,[4],300 mg/kg
same,LD50 Rats ip,[2],80 mg/kg
same,LD50 Rats iv,[2],350 mg/kg
Cc1cccc(C)c1NC(=O)C1CCCCN1C (stereo not shown) [Mepivacaine],LD50 at 7 days,[3],125 mg/kg
same,LD50 Mice ip,[4],135 mg/kg
same,LD50 Mice iv,[4],35 mg/kg
same,LD50 Rats iv,[2],30 mg/kg
CN/C(=N/CCSCc1nc[nH]c1C)NC#N [Cimetidine],LD50 at 7 days,[3],750 mg/kg
same,LD50 Mice ip,[4],306 mg/kg
same,LD50 Mice iv,[4],150 mg/kg
same,LD50 Rats ip,[2],328 mg/kg
same,LD50 Rats iv,[2],326 mg/kg
Nc1nc2c(ncn2COCCO)c(=O)[nH]1 [Acyclovir],LD50 at 7 days,[3],> 2000 mg/kg
same,LD50 Mice ip,[4],1000 mg/kg
same,LD50 (dose reported by Tucker et al.),[2]; rats,greater than 650 mg/kg
CC1(C)S[C@@H]2[C@H](NC(=O)[C@H](N)c3ccc(O)cc3)C(=O)N2[C@H]1C(=O)O [Amoxicillin],LD50 at 7 days,[3],750 mg/kg
same,LD50 Rats ip,[2],2870 mg/kg
COCCc1ccc(OCC(O)CNC(C)C)cc1 (stereo not shown) [Metoprolol],LD50 at 7 days,[3],500 mg/kg
same,LD50 Mice ip,[4],>200 mg/kg
same,LD50 Mice iv,[4],62 mg/kg
same,LD50 Rats iv,[2],71.9 mg/kg
C[S+](C)[O-] [DMSO],Survival %,[1]; 1 µL injected per TMC,100%
same,tolerability,[1],well tolerated
same,Survival %,[1]; 2 µL injected per TMC,0%
same,lethality,[1]; 2 µL per TMC,100%
same,LD50,[5],2500 mg/kg
same,LD50,[6],6500 mg/kg
same,LD50,"[4]; i.v., mice, reported",20600 mg/kg
same,LD50,"[2]; i.v., rats",5400 mg/kg
CC(=O)Nc1ccc(O)cc1 [Paracetamol],LD50 at 7 days,[3],125 mg/kg
same,LD50 Mice ip,[4],340 mg/kg
COc1cc(Cc2cnc(N)nc2N)cc(OC)c1OC [Trimethoprim],LD50 at 7 days,[3],300 mg/kg
same,LD50 Mice ip,[4],400 mg/kg
same,LD50 Mice iv,[4],132 mg/kg
same,LD50 Rats ip,[2],500 mg/kg
CN(C)CCCN1c2ccccc2Sc2ccc(Cl)cc21 [Chlorpromazine],LD50 at 7 days,[3],300 mg/kg
same,Stability % Rats Microsomes,"[7]; rat liver microsomes 0.2 mg/mL, 30 min",77.99%
same,T ½,[8],8 to 35 h
same,Vd,[8],7 to 20 L/kg
same,t ½ (prolonged),[8]; [14],60 h
same,t ½ (reduced),[8]; [14],2 h
same,Protein Binding,[9],95–98%
same,LogS,[10],−5.01
same,LD50 Mice ip,[4],14 mg/kg
same,LD50 Mice iv,[4],106 mg/kg
same,LD50 Rats ip,[2],137 mg/kg
same,elimination / metabolism of parent drug in TMC hemolymph,[11],extensively metabolized
NC(=O)N1c2ccccc2C=Cc2ccccc21 [Carbamazepine],LD50 at 7 days,[3],125 mg/kg
same,Stability % Human Microsomes,"[7]; human liver microsomes 0.2 mg/mL, 60 min",77.54%
same,T ½,[8],5 h
same,Vd,[8],0.8 to 1.9 L/kg
same,Protein Binding,[9],70–80%
same,LD50 Mice ip,[4],114 mg/kg
same,LD50 Rats ip,[2],158 mg/kg
same,elimination / metabolism of parent drug in TMC hemolymph,[11],decreased after 4h
Cc1onc(-c2ccccc2Cl)c1C(=O)N[C@@H]1C(=O)N2[C@@H]1SC(C)(C)[C@@H]2C(=O)O [Cloxacillin],LD50 at 7 days,[3],750 mg/kg
same,LD50 Rats iv,[2],1660 mg/kg
Nc1ccc(S(=O)(=O)Nc2ncccn2)cc1 [Sulfadiazine],LD50 at 7 days,[3],300 mg/kg
same,LD50 Mice ip,[4],750 mg/kg
same,LD50 Mice iv,[4],180 mg/kg
same,LD50 Rats ip,[2],446 mg/kg
same,LD50 Rats iv,[2],880 mg/kg
CC(C)C(=O)OC[C@H]1O[C@@H](n2ccc(NO)nc2=O)[C@H](O)[C@@H]1O [Molnupiravir],LD50 at 7 days,[3],> 2000 mg/kg
same,toxicity at the highest dose,[12],absence of toxicity
same,LD50,[13],> 800 mg/kg
COc1ccc2c3c1O[C@H]1[C@@H](O)C=C[C@H]4[C@@H](C2)N(C)CC[C@@]341 [Codeine],LD50 at 7 days,[3],50 mg/kg
same,LD50 Mice ip,[4],60 mg/kg
same,LD50 Rats ip,[2],100 mg/kg
same,LD50 Rats iv,[2],75 mg/kg
CC(C)=O [Acetone],Survival %,[1]; 1 µL injected per TMC,100%
same,tolerability,[1],well tolerated
same,Survival %,[1]; 2 µL injected per TMC,16.6%
